Experimental data: the supplement of paper PMC6411743

What follows are targets tested with Nc1ncnc2c1ncn2[C@@H]1O[C@H](COP(=O)(O)OP(=O)(O)OP(=O)(O)O)[C@@H](O)[C@H]1O [adenosine triphosphate] (assay: pEC50 of ATP-induced change in protein thermal stability (2D-TPP)).
In short: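 pEC50 was obtained by fitting dose-response curves for each replicate over pairs of adjacent temperatures, and hits were assigned using permutation-based false discovery rate control. The input came from Jurkat crude lysate treated with five concentrations including vehicle (10 min, room temperature), heated at 12 temperatures from 42 to 63.9 °C for 3 min, then given NP40 and benzonase (60 min, 4 °C). After ultracentrifugation, soluble protein was quantified by TMT LC-MS/MS as median-normalised fold changes versus vehicle per temperature, across three independent experiments.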
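Also: lysate dosed with Na-ATP at 0 0.005 0.05 0.5 and 2 mM.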

Chain of UniProt O95396 (O95396 whole entry): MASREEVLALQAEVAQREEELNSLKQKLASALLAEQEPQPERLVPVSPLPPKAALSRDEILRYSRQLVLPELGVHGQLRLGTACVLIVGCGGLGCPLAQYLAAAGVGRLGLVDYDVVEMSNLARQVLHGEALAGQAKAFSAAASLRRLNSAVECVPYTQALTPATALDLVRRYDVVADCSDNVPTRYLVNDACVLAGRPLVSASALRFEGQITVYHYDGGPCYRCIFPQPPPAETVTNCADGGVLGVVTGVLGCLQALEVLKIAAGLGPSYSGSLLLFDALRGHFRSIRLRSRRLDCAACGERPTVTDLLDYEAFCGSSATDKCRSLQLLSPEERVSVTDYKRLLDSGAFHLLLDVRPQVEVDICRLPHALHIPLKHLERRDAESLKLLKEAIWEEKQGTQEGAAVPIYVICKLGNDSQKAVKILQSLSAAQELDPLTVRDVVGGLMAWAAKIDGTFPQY
Chain of UniProt Q9Y478 (Q9Y478 whole entry): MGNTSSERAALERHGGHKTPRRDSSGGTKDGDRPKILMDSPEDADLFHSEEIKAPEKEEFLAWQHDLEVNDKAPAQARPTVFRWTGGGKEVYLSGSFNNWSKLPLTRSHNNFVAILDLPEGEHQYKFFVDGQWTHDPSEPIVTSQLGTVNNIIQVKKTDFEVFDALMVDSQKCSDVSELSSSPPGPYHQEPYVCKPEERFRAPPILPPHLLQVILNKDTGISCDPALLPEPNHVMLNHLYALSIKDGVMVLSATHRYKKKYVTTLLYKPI
Chain of UniProt Q9H944 (Q9H944 whole entry): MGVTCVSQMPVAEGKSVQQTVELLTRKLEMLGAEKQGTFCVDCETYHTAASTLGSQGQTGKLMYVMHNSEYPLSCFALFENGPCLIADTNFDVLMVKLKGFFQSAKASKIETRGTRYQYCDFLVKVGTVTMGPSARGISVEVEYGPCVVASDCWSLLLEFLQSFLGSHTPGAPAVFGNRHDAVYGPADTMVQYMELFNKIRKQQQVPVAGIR
Chain of UniProt P07686 (P07686 whole entry): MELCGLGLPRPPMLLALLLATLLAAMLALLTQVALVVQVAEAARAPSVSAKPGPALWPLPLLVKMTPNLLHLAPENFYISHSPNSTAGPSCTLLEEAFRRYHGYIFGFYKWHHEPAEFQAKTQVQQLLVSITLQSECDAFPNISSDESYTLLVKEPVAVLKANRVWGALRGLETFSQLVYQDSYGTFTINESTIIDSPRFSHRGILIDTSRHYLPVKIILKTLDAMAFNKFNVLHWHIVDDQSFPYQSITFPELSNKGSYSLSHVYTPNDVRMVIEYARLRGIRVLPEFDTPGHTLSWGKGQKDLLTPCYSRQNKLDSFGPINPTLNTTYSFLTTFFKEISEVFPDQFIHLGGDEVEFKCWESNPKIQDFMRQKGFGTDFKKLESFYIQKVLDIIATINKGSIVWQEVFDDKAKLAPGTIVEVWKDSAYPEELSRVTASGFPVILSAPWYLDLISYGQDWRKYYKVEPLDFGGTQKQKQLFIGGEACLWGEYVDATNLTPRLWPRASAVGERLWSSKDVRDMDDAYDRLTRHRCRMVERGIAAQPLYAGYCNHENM
Chain of UniProt P53384 (P53384 whole entry): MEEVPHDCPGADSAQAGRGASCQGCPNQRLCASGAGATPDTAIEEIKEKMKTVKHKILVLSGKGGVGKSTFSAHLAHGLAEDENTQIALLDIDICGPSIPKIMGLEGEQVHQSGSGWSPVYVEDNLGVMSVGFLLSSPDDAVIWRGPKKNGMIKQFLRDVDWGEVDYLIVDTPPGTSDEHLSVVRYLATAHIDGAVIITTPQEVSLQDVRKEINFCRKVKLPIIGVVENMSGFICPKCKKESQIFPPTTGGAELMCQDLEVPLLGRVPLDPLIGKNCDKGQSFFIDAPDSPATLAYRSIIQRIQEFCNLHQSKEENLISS
Chain of UniProt P49770 (P49770 whole entry): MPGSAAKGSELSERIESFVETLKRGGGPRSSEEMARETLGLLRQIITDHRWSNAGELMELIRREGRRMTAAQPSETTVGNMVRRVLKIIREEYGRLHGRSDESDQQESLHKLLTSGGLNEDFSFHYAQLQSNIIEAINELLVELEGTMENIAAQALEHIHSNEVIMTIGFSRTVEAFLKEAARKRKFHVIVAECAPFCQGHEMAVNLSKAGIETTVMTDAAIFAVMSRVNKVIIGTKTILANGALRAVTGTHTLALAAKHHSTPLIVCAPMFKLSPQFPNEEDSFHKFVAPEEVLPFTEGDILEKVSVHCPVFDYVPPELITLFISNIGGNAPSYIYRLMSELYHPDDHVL
Chain of UniProt O60749 (O60749 whole entry): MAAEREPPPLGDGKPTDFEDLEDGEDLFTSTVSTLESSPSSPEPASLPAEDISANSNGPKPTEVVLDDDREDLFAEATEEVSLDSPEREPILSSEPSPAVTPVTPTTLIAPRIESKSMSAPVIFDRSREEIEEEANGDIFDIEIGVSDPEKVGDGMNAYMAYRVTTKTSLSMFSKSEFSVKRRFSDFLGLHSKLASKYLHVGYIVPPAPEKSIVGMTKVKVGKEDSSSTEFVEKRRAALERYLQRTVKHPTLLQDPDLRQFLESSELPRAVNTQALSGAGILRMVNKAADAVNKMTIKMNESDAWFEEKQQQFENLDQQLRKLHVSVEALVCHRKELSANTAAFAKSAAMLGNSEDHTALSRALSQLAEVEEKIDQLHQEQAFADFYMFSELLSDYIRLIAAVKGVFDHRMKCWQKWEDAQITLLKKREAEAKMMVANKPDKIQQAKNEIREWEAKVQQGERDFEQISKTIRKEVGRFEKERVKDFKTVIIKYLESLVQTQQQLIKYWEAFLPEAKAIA
Chain of UniProt P16401 (P16401 whole entry): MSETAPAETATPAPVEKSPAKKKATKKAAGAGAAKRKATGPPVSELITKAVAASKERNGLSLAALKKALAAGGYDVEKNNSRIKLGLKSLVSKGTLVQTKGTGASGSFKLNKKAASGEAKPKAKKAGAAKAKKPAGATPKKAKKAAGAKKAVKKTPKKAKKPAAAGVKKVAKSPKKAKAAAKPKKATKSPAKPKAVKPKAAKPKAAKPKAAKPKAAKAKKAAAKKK
Chain of UniProt Q9Y285 (Q9Y285 whole entry): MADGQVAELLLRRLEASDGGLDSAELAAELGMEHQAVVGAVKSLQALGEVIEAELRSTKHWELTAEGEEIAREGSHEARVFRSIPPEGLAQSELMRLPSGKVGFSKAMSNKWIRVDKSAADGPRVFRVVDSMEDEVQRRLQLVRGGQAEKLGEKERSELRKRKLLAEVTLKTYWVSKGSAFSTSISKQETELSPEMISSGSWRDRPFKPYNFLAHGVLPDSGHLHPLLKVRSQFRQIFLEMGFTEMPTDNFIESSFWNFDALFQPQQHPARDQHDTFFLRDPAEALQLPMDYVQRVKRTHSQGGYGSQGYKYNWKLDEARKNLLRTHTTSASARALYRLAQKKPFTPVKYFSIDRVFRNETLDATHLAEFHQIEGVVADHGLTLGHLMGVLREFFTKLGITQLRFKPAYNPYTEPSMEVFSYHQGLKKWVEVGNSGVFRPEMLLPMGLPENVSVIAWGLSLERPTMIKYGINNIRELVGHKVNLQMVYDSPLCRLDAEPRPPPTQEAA
Chain of UniProt Q9UKU0 (Q9UKU0 whole entry): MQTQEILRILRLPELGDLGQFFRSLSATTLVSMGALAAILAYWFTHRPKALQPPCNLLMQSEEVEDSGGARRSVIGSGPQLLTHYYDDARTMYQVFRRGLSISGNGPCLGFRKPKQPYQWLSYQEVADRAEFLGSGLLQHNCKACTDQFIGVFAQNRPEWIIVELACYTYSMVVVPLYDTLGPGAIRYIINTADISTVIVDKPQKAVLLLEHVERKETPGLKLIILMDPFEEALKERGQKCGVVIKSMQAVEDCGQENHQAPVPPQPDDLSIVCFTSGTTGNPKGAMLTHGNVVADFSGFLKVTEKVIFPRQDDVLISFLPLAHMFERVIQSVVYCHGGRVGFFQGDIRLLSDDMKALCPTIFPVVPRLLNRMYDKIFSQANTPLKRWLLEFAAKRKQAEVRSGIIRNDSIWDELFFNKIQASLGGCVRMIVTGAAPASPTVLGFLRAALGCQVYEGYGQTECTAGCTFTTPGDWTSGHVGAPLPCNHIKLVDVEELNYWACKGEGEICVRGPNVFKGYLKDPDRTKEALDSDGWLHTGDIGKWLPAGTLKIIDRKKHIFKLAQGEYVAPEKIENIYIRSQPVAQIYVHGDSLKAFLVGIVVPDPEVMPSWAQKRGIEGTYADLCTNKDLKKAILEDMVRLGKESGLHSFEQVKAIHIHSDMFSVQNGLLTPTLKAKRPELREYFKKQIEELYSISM
Chain of UniProt P51790 (P51790 whole entry): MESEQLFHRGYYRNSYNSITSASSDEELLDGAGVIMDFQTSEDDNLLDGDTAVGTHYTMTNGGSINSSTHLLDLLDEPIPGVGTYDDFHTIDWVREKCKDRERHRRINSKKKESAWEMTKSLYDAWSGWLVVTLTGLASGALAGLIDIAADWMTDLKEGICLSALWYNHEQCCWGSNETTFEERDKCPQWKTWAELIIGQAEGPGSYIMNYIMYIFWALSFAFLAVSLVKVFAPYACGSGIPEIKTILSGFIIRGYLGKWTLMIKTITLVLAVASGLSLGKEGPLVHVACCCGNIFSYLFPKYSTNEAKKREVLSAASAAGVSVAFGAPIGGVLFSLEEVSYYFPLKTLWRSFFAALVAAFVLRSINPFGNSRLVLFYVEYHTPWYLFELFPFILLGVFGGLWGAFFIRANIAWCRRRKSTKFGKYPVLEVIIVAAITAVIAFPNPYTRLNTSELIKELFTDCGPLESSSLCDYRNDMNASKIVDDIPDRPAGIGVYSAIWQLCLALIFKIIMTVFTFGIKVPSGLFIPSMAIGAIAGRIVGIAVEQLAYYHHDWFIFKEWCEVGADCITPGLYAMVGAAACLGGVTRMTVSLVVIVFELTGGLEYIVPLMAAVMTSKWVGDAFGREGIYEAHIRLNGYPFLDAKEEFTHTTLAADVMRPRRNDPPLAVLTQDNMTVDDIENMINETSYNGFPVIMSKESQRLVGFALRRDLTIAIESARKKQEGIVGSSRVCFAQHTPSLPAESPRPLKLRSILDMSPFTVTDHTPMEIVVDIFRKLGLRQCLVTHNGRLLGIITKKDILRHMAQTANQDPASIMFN

| Target | pEC50 |
| --- | --- |
| FARSA (effect direction: stabilized) (UniProt Q9Y285) | 3.47 |
| THOC1 (effect direction: stabilized) (UniProt Q96FV9) | < 2.7 |
| ENO1 (effect direction: destabilized) (UniProt P06733) | < 2.7 |
| MRPS22 (effect direction: destabilized) (UniProt P82650) | 4.46 |
| OGDH (effect direction: stabilized) (UniProt Q02218) | 3.3 |
| UniProt O94826 (effect direction: stabilized) | 3.14 |
| PES1 (effect direction: destabilized) (UniProt O00541) | 3.49 |
| UniProt Q8NI60 (effect direction: stabilized) | 3.73 |
| UniProt Q92615 (effect direction: stabilized) | 3.16 |
| PMVK (effect direction: stabilized) (UniProt Q15126) | 3.58 |
| PSMD12 (effect direction: stabilized) (UniProt O00232) | 4.29 |
| UniProt Q9NYL2 (effect direction: stabilized) | 3.65 |
| GTF2B (effect direction: stabilized) (UniProt Q00403) | 3.26 |
| EXOC2 (effect direction: stabilized) (UniProt Q96KP1) | 3 |
| HEXB (effect direction: stabilized) (UniProt P07686) | 3.01 |
| TCP1 (effect direction: stabilized) (UniProt P17987) | 4.76 |
| TARDBP (effect direction: stabilized) (UniProt Q13148) | 3.21 |
| MTHFSD (effect direction: stabilized) (UniProt Q2M296) | 3.62 |
| RB1 (effect direction: stabilized) (UniProt P06400) | 3.07 |
| PRDX6 (effect direction: stabilized) (UniProt P30041) | < 2.7 |
| UniProt O14965 (effect direction: stabilized) | 3.25 |
| CSE1L (effect direction: stabilized) (UniProt P55060) | 3.69 |
| SSB (effect direction: stabilized) (UniProt P05455) | < 2.7 |
| HNRNPUL2 (effect direction: stabilized) (UniProt Q1KMD3) | 3.39 |

| Target | pEC50 |
| --- | --- |
| FBL (effect direction: destabilized) (UniProt P22087) | 3.44 |
| WRN (effect direction: stabilized) (UniProt Q14191) | 4.09 |
| MED20 (effect direction: stabilized) (UniProt Q9H944) | < 2.7 |
| UniProt Q8NBU5 (effect direction: stabilized) | 3.06 |
| CRLF3 (effect direction: stabilized) (UniProt Q8IUI8) | < 2.7 |
| CAP1 (effect direction: stabilized) (UniProt Q01518) | 5 |
| GRSF1 (effect direction: stabilized) (UniProt Q12849) | 2.83 |
| UniProt P68400 (effect direction: stabilized) | 4.09 |
| MAP3K4 (effect direction: stabilized) (UniProt Q9Y6R4) | 3.63 |
| UniProt Q9UH99 (effect direction: stabilized) | 3.34 |
| CLCN3 (effect direction: stabilized) (UniProt P51790) | 3.23 |
| DARS2 (effect direction: stabilized) (UniProt Q6PI48) | 4.12 |
| UBLCP1 (effect direction: destabilized) (UniProt Q8WVY7) | 2.88 |
| FAF1 (effect direction: stabilized) (UniProt Q9UNN5) | 2.79 |
| ZNF740 (effect direction: stabilized) (UniProt Q8NDX6) | 3.16 |
| GRPEL1 (effect direction: destabilized) (UniProt Q9HAV7) | 4.04 |
| UniProt P0C0S5 (effect direction: stabilized) | 2.96 |
| HSP90AA1 (effect direction: stabilized) (UniProt P07900) | > 5.3 |
| ASPSCR1 (effect direction: stabilized) (UniProt Q9BZE9) | 3.92 |
| EIF2B2 (effect direction: stabilized) (UniProt P49770) | 2.83 |
| PSMD6 (effect direction: stabilized) (UniProt Q15008) | 4.15 |
| PABPN1 (effect direction: destabilized) (UniProt Q86U42) | 3.23 |
| FKBP4 (effect direction: stabilized) (UniProt Q02790) | < 2.7 |
| HIST1H1C (effect direction: destabilized) (UniProt P16403) | 4.05 |

| Target | pEC50 |
| --- | --- |
| UniProt O95071 (effect direction: stabilized) | 3.27 |
| FTSJ3 (effect direction: destabilized) (UniProt Q8IY81) | 3.22 |
| PPM1B (effect direction: destabilized) (UniProt O75688) | 3.15 |
| CACYBP (effect direction: stabilized) (UniProt Q9HB71) | 2.95 |
| NUDC (effect direction: stabilized) (UniProt Q9Y266) | < 2.7 |
| VPS35 (effect direction: stabilized) (UniProt Q96QK1) | < 2.7 |
| PSMC4 (effect direction: stabilized) (UniProt P43686) | 4.09 |
| PELO (effect direction: stabilized) (UniProt Q9BRX2) | 3.17 |
| MTHFD1L (effect direction: stabilized) (UniProt Q6UB35) | 3.33 |
| EMG1 (effect direction: stabilized) (UniProt Q92979) | 5.25 |
| UBE3A (effect direction: stabilized) (UniProt Q05086) | < 2.7 |
| UniProt P0C0S8 (effect direction: stabilized) | 2.92 |
| UniProt P84085 (effect direction: destabilized) | < 2.7 |
| GGPS1 (effect direction: destabilized) (UniProt O95749) | 2.94 |
| AHSA1 (effect direction: stabilized) (UniProt O95433) | < 2.7 |
| SMC2 (effect direction: stabilized) (UniProt O95347) | 3.49 |
| UniProt O60610 (effect direction: stabilized) | < 2.7 |
| HIST1H1B (effect direction: destabilized) (UniProt P16401) | < 2.7 |
| RPL18 (effect direction: destabilized) (UniProt Q07020) | < 2.7 |
| UniProt Q96EK5 (effect direction: stabilized) | 2.96 |
| MACROD1 (effect direction: stabilized) (UniProt Q9BQ69) | 3.27 |
| MSN (effect direction: destabilized) (UniProt P26038) | 3.04 |
| SNX2 (effect direction: stabilized) (UniProt O60749) | < 2.7 |
| UniProt Q15149 (effect direction: stabilized) | 2.72 |

| Target | pEC50 |
| --- | --- |
| DDX56 (effect direction: stabilized) (UniProt Q9NY93) | 3.68 |
| CDKAL1 (effect direction: destabilized) (UniProt Q5VV42) | 2.9 |
| NIPSNAP1 (effect direction: stabilized) (UniProt Q9BPW8) | 3.75 |
| UniProt Q8N2M8 (effect direction: stabilized) | < 2.7 |
| NUBP1 (effect direction: stabilized) (UniProt P53384) | 3.44 |
| GYS1 (effect direction: destabilized) (UniProt P13807) | 5.03 |
| SF3A1 (effect direction: stabilized) (UniProt Q15459) | 2.79 |
| XRCC6 (effect direction: stabilized) (UniProt P12956) | < 2.7 |
| HNRNPL (effect direction: stabilized) (UniProt P14866) | 3.23 |
| SPN (effect direction: destabilized) (UniProt P16150) | 3.88 |
| CAND1 (effect direction: stabilized) (UniProt Q86VP6) | 2.95 |
| UniProt Q9BY42 (effect direction: destabilized) | 3.25 |
| MOCS3 (effect direction: stabilized) (UniProt O95396) | 3.95 |
| UniProt Q8N163 (effect direction: stabilized) | 2.9 |
| PRKAB1 (effect direction: stabilized) (UniProt Q9Y478) | 3.22 |
| UniProt P51812 (effect direction: stabilized) | 3.89 |
| BOP1 (effect direction: stabilized) (UniProt Q14137) | < 2.7 |
| UniProt O00487 (effect direction: stabilized) | 4.28 |
| FDXR (effect direction: stabilized) (UniProt P22570) | 3.26 |
| UniProt Q16181 (effect direction: stabilized) | < 2.7 |
| ACSL6 (effect direction: stabilized) (UniProt Q9UKU0) | 3.69 |
